In patent publication US12404345B2, “Humanized antibodies against iRHOM2” (SCIRHOM GMBH, priority 2021, dated 2025):

Tested on: PMA-induced release of endogenous HB-EGF from human PBMCs from healthy donors
Test: ELISA-based HB-EGF release assay, PMA-induced, PBMCs from healthy donors
Assay type: cell-based
Details: PBMC, Batimastat 10 μM, PMA 25 ng/ml, 24 hours
Procedure: In the following study, ELISA-based HB-EGF release assays were performed to analyze the inhibitory effects of the antibodies of the invention on PMA-induced release of endogenous HB-EGF from primary human material obtained from healthy donors using peripheral blood mononuclear cells (PBMCs).
In brief, on day 1, Nunc black MaxiSorp® 96-well plates (Thermo Fisher Scientific, USA) were coated overnight with 100 μl per well of mouse anti-human HB-EGF capture antibody (provided as part of the DuoSet ELISA kit) at 2 μg/ml TBS at 4° C. […]
After 4 times washing with 350 μl TBS-T (Carl Roth, Germany) per well on a 96-head plate washer (Tecan Group, Switzerland) and careful removal of all buffer traces after the fourth cycle, 100 μl streptavidin-AP (R&D Systems, USA) diluted 1:10,000 in TBS were added to each well and, again protected from direct light, plates were incubated at room temperature for 30 minutes. […] Using an infinite M1000 (Tecan Group, Switzerland) microplate reader, the fluorescence of each well was collected at an excitation wavelength of 435 nm and an emission wavelength of 555 nm.

Q: `CNC(=O)[C@H](Cc1ccccc1)NC(=O)[C@H](CC(C)C)[C@H](CSc1cccs1)C(=O)NO` [Batimastat] was tested. Which inhibition at 10 µM did it give?
A: 100%
